Source: PubChem BioAssay AID330 (DTP/NCI, 2004)
Values joined by “and” are separate entries in the source; they are usually repeats but may differ in a detail not shown here. Identical values can stand only once. Inconclusive results and toxic doses are left out. Rule for the calls: active = survival T/C of 150% or more; inactive = T/C below 125% in these data.

Test system: P388 leukemia ip, CD2F1 mice, survival T/C
Assay: NCI In Vivo Anticancer Drug Screen. Data for tumor model P388 Leukemia (intraperitoneal) in CD2F1 (CDF1) mice
Settings: endpoint: median survival time, higher = longer survival
Outline: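 Mice carrying the transplanted tumor received test compound or vehicle. Survival was recorded in each group, and the value is the treated-group measurement divided by that of the vehicle-treated control group.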

[1] = dose: 50.0 mg/kg/injection, schedule: Q01DX009 (ip), vehicle: saline
[2] = dose: 100.0 mg/kg/injection, schedule: Q01DX009 (ip), vehicle: saline
[3] = dose: 200.0 mg/kg/injection, schedule: Q01DX009 (ip), vehicle: saline
[4] = dose: 400.0 mg/kg/injection, schedule: Q01DX009 (ip), vehicle: saline
[5] = dose: 600.0 mg/kg/injection, schedule: Q01DX009 (ip), vehicle: saline
[6] = dose: 50.0 mg/kg/injection, schedule: Q01DX005 (ip), vehicle: saline
[7] = dose: 100.0 mg/kg/injection, schedule: Q01DX005 (ip), vehicle: saline
[8] = dose: 200.0 mg/kg/injection, schedule: Q01DX005 (ip), vehicle: saline

Measured: T/C

O=C(O)/C=C/c1ccc(O)c(O)c1
inactive: [1] 101 % of control and 103 % of control | [2] 101 % of control and 118 % of control | [3] 102 % of control and 107 % of control | [4] 100 % of control and 103 % of control | [5] 116 % of control

Oc1c(CN2CCCC2)cc(Nc2nccc(/C=C/c3ccc(Cl)cc3)n2)cc1CN1CCCC1
inactive: dose: 6.25 mg/kg/injection, schedule: Q01DX009 (ip), vehicle: saline 106 % of control | dose: 12.5 mg/kg/injection, schedule: Q01DX009 (ip), vehicle: saline 106 % of control | dose: 25.0 mg/kg/injection, schedule: Q01DX009 (ip), vehicle: saline 110 % of control | [1] 114 % of control

C=C1C(=O)C23C(OC(=O)/C=C/C)C1CCC2C12COC3(O)C(O)C1C(C)(C)CCC2O (stereo unspecified)
inactive: dose: 3.75 mg/kg/injection, schedule: Q01DX009 (ip), vehicle: saline with Tween-80 103 % of control | dose: 7.5 mg/kg/injection, schedule: Q01DX009 (ip), vehicle: saline with Tween-80 108 % of control | dose: 15.0 mg/kg/injection, schedule: Q01DX009 (ip), vehicle: saline with Tween-80 112 % of control

C=C1C(=O)OC2C1C(O)C(OC(=O)/C(C)=C/C)C(C)C1C(=O)C=C(C)C21 (stereo unspecified)
inactive: dose: 6.25 mg/kg/injection, schedule: Q01DX005 (ip), vehicle: Klucel (hydroxypropylcellulose) (HPC) 107 % of control | dose: 12.5 mg/kg/injection, schedule: Q01DX005 (ip), vehicle: Klucel (hydroxypropylcellulose) (HPC) 114 % of control | dose: 25.0 mg/kg/injection, schedule: Q01DX005 (ip), vehicle: Klucel (hydroxypropylcellulose) (HPC) 115 % of control

C=C(CC(O)c1ccccc1)C(=O)Nc1ccccc1OC (stereo unspecified)
inactive: [6] 98 % of control | [7] 103 % of control | [8] 100 % of control

CN(C)c1ccc(N(C)C)c(C(O)(c2ccccc2)c2ccccc2)c1
inactive: dose: 50.0 mg/kg/injection, schedule: Q01DX009 (ip), vehicle: saline with Tween-80 88 % of control

C/C=C1/CN2CC[C@@]34c5cc([C@]67C8CCN9C/C(=C/C)[C@H](CC96)C(C(=O)OC)N7c6ccccc68)c(OC)cc5N(C)[C@H]3C2CC1C4C(=O)OC (stereo partly specified)
inactive: dose: 5.25 mg/kg/injection, schedule: Q01DX005 (ip), vehicle: Klucel (hydroxypropylcellulose) (HPC) 104 % of control | dose: 10.5 mg/kg/injection, schedule: Q01DX005 (ip), vehicle: Klucel (hydroxypropylcellulose) (HPC) 98 % of control | dose: 21.0 mg/kg/injection, schedule: Q01DX005 (ip), vehicle: Klucel (hydroxypropylcellulose) (HPC) 90 % of control | dose: 42.0 mg/kg/injection, schedule: Q01DX005 (ip), vehicle: Klucel (hydroxypropylcellulose) (HPC) 96 % of control

COc1cncn2c(C)nnc12
inactive: [6] 100 % of control | [7] 99 % of control | [8] 94 % of control

O=c1cccc[nH]1
inactive: [1] 104 % of control and 112 % of control and 121 % of control | [2] 107 % of control and 109 % of control and 110 % of control | [3] 104 % of control and 105 % of control and 118 % of control | [4] 108 % of control and 96 % of control | [5] 121 % of control

CCSC1=C(SCC)C1SCC
inactive: dose: 12.5 mg/kg/injection, schedule: Q04DX003 (ip), vehicle: Klucel (hydroxypropylcellulose) (HPC) 107 % of control | dose: 25.0 mg/kg/injection, schedule: Q04DX003 (ip), vehicle: Klucel (hydroxypropylcellulose) (HPC) 107 % of control | dose: 50.0 mg/kg/injection, schedule: Q04DX003 (ip), vehicle: Klucel (hydroxypropylcellulose) (HPC) 121 % of control | dose: 100.0 mg/kg/injection, schedule: Q04DX003 (ip), vehicle: Klucel (hydroxypropylcellulose) (HPC) 113 % of control

CCOC(=O)Nc1c(CC(C)(C)O)n[nH]c1C
inactive: dose: 50.0 mg/kg/injection, schedule: Q01DX005 (ip), vehicle: saline with Tween-80 103 % of control | dose: 100.0 mg/kg/injection, schedule: Q01DX005 (ip), vehicle: saline with Tween-80 100 % of control | dose: 200.0 mg/kg/injection, schedule: Q01DX005 (ip), vehicle: saline with Tween-80 100 % of control

CCCCCCCCCCCCCCCC(=O)OOC(C)(C)C
inactive: dose: 60.0 mg/kg/injection, schedule: Q01DX005 (ip), vehicle: saline with Tween-80 93 % of control | dose: 120.0 mg/kg/injection, schedule: Q01DX005 (ip), vehicle: saline with Tween-80 94 % of control | dose: 240.0 mg/kg/injection, schedule: Q01DX005 (ip), vehicle: saline with Tween-80 93 % of control
